# Assay results reported in ChEMBL document CHEMBL4813989, “Design, synthesis, and biological evaluation of nitroisoxazole-containing spiro[pyrrolidin-oxindole] derivatives as novel glutathione peroxidase 4/mouse double minute 2 dual inhibitors that inhibit breast adenocarcinoma cell proliferation” (Eur J Med Chem, 2021).
# Calls of active or inactive are those of the source. The calls are words filed in the database; no cut-off is given here.
# Tests used:
# MCF7 [1] = test: Induction of apoptosis in human MCF7 cells assessed as viable cells at 1 uM incubated for 48 hrs in presence of Fer-1 by annexin-V-FITC and PI staining based flow cytometry analysis (reference value: 93.1 %); type: functional; conditions: read-out: Activity
# MCF7 [2] = test: Induction of apoptosis in human MCF7 cells assessed as early apoptotic cells at 0.5 uM incubated for 48 hrs by annexin-V-FITC and PI staining based flow cytometry analysis (reference value: 1.05 %); type: functional
# [3] = molecular target: T1, E3 ubiquitin-protein ligase Mdm2 (Homo sapiens, UniProt Q00987); test: Inhibition of MDM2 in human MCF7 cells assessed as increase in MDM2 accumulation at 0.5 to 2 uM incubated for 48 hrs by Western blot analysis; type: cell-based; conditions: dose 0.5-2 µM
# Target sequence in this assay (Q00987 whole entry, looked up): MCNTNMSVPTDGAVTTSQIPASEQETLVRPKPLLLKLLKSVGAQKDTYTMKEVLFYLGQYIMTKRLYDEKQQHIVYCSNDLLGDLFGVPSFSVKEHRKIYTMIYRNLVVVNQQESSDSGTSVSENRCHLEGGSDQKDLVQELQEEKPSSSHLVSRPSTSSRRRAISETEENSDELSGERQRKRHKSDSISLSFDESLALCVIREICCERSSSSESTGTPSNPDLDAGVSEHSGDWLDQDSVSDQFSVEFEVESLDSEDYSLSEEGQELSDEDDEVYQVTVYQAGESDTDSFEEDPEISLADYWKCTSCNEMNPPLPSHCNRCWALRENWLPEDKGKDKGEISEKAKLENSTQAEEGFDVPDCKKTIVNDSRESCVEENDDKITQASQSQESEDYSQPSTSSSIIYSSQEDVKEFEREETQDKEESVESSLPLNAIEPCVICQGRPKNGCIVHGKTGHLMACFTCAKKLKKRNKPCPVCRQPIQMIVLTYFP
# MCF7 [4] = test: Induction of apoptosis in human MCF7 cells assessed as viable cells at 0.1 uM incubated for 48 hrs by annexin-V-FITC and PI staining based flow cytometry analysis (reference value: 93.1 %); type: functional; conditions: read-out: Activity
# MCF7 [5] = test: Induction of apoptosis in human MCF7 cells assessed as viable cells at 0.5 uM incubated for 48 hrs by annexin-V-FITC and PI staining based flow cytometry analysis (reference value: 93.1 %); type: functional; conditions: read-out: Activity
# [6] = Toxicity in BALB/c mouse xenografted with human MCF7 cells assessed as effect on body weight at 25 to 50 mg/kg, ip administered once for 17 days; type: organism-based; conditions: in vivo, 408 h, dose 25-50 mg/kg, time 17 day
# MCF7 [7] = test: Induction of apoptosis in human MCF7 cells assessed as early apoptotic cells at 1 uM incubated for 48 hrs in presence of Fer-1 by annexin-V-FITC and PI staining based flow cytometry analysis (reference value: 1.05 %); type: functional
# MCF7 [8] = test: Induction of apoptosis in human MCF7 cells assessed as viable cells at 1 uM incubated for 48 hrs by annexin-V-FITC and PI staining based flow cytometry analysis (reference value: 93.1 %); type: functional; conditions: read-out: Activity
# MCF7 [9] = test: Induction of apoptosis in human MCF7 cells assessed as late apoptotic cells at 0.1 uM incubated for 48 hrs by annexin-V-FITC and PI staining based flow cytometry analysis (reference value: 2.61 %); type: functional
# MCF7 [10] = test: Induction of LPO production in human MCF7 cells at 1 uM in presence of Fer-1 by C11-BODIPY staining based confocal laser scanning microscopic analysis; type: functional, cell-based
# MCF7 [11] = test: Antitumor activity against human MCF7 cells xenografted in BALB/c mouse assessed as reduction in Ki-67 expression at 25 to 50 mg/kg, ip administered once for 17 days by immunohistochemical analysis; type: functional, organism-based; conditions: dose 25-50 mg/kg, time 17.0 day
# MCF7 [12] = test: Antiproliferative activity against human MCF7 cells assessed as reduction in cell growth incubated for 48 hrs by CCK8 assay; conditions: MCF7, 48 h
# [13] = molecular target: T1, E3 ubiquitin-protein ligase Mdm2; test: Inhibition of MDM2 in human MCF7 cells assessed as increase in p53 accumulation at 0.5 to 2 uM incubated for 48 hrs by Western blot analysis; type: cell-based; conditions: dose 0.5-2 µM
# Target sequence in this assay (Q00987 whole entry, looked up): as above
# [14] = molecular target: T2, Phospholipid hydroperoxide glutathione peroxidase GPX4 (Homo sapiens) (UniProt P36969); test: Binding affinity in GPX4 in human MCF7 cells assessed as increase in stability in 60 and 65 degreeC at 100 uM by cellular thermal shift assay; type: cell-based
# T2 sequence (whole entry): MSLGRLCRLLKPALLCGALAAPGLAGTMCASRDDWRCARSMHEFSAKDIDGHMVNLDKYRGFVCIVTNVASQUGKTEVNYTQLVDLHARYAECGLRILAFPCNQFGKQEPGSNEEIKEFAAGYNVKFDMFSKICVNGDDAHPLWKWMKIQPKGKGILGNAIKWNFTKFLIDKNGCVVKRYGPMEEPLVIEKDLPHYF
# MCF7 [15] = test: Induction of apoptosis in human MCF7 cells assessed as early apoptotic cells at 0.1 uM incubated for 48 hrs by annexin-V-FITC and PI staining based flow cytometry analysis (reference value: 1.05 %); type: functional
# [16] = molecular target: T1, E3 ubiquitin-protein ligase Mdm2; test: Inhibition of MDM2 (unknown origin) using peptide as substrate incubated for 30 mins by fluorescence polarization assay
# Target sequence in this assay (Q00987 whole entry): as the sequence (Q00987 whole entry, looked up) above
# MCF7 [17] = test: Induction of apoptosis in human MCF7 cells assessed as late apoptotic cells at 1 uM incubated for 48 hrs in presence of Fer-1 by annexin-V-FITC and PI staining based flow cytometry analysis (reference value: […] %); type: functional
# Mus musculus = test: In vivo induction of apoptosis in human MCF7 cells xenografted in BALB/c mouse assessed as increase in TUNEL expression at 25 to 50 mg/kg, ip administered once for 17 days by immunohistochemical analysis; type: functional, organism-based; conditions: dose 25-50 mg/kg, time 17.0 day
# MCF7 [18] = test: Induction of apoptosis in human MCF7 cells assessed as necrotic cells at 0.1 uM incubated for 48 hrs by annexin-V-FITC and PI staining based flow cytometry analysis (reference value: 3.21 %); type: functional
# MCF7 [19] = test: Antiproliferative activity against human MCF7 cells assessed as reduction in cell growth incubated for 48 hrs in presence of Fer-1 by CCK8 assay; conditions: MCF7, 48 h
# MCF7 [20] = test: Induction of ROS production in human MCF7 cells at 1 uM in presence of Fer-1 by DCFH-DA assay; type: functional, cell-based
# MCF7 [21] = test: Induction of apoptosis in human MCF7 cells assessed as necrotic cells at 1 uM incubated for 48 hrs in presence of Fer-1 by annexin-V-FITC and PI staining based flow cytometry analysis (reference value: 3.21 %); type: functional
# [22] = molecular target: E3 ubiquitin-protein ligase Mdm2 (Mus musculus) (UniProt P23804); test: In vivo inhibition of MDM2 in human MCF7 cells xenografted in BALB/c mouse assessed as increase in p53 expression at 25 to 50 mg/kg, ip administered once for 17 days by immunofluorescence analysis; type: functional, organism-based; conditions: dose 25-50 mg/kg, time 17.0 day
# MCF7 [23] = test: Antitumor activity against human MCF7 cells xenografted in BALB/c mouse assessed as tumor growth inhibition at 25 to 50 mg/kg, ip administered once for 17 days; type: functional, organism-based; conditions: dose 25-50 mg/kg, time 17.0 day
# MCF-10A = test: Cytotoxicity against human MCF-10A cells assessed as reduction in cell viability incubated for 48 hrs by CCK8 assay; type: cell-based
# MCF7 [24] = test: Induction of apoptosis in human MCF7 cells assessed as late apoptotic cells at 1 uM incubated for 48 hrs by annexin-V-FITC and PI staining based flow cytometry analysis (reference value: 2.61 %); type: functional
# MCF7 [25] = test: Induction of apoptosis in human MCF7 cells assessed as necrotic cells at 1 uM incubated for 48 hrs by annexin-V-FITC and PI staining based flow cytometry analysis (reference value: 3.21 %); type: functional
# MCF7 [26] = test: Induction of ROS production in human MCF7 cells at 1 uM by DCFH-DA assay; type: functional, cell-based
# MCF7 [27] = test: Induction of apoptosis in human MCF7 cells assessed as late apoptotic cells at 0.5 uM incubated for 48 hrs by annexin-V-FITC and PI staining based flow cytometry analysis (reference value: 2.61 %); type: functional
# [28] = molecular target: T2, Phospholipid hydroperoxide glutathione peroxidase GPX4 (Homo sapiens); test: Inhibition of GPX4 in human MCF7 cells assessed as increase in GPX4 degradation incubated for 48 hrs by Western blot analysis; type: cell-based; conditions: dose 0.1-2 µM
# MCF7 [29] = test: Induction of LPO production in human MCF7 cells at 1 uM by C11-BODIPY staining based confocal laser scanning microscopic analysis; type: functional, cell-based
# MCF7 [30] = test: Induction of apoptosis in human MCF7 cells assessed as necrotic cells at 0.5 uM incubated for 48 hrs by annexin-V-FITC and PI staining based flow cytometry analysis (reference value: 3.21 %); type: functional
# MCF7 [31] = test: Induction of apoptosis in human MCF7 cells assessed as early apoptotic cells at 1 uM incubated for 48 hrs by annexin-V-FITC and PI staining based flow cytometry analysis (reference value: 1.05 %); type: functional
# MCF7 [32] = test: Induction of apoptosis in human MCF7 cells assessed as increase in cleaved caspase-9 level at 2 uM incubated for 48 hrs by Western blot analysis; type: functional, cell-based
# Chain of E3 ubiquitin-protein ligase Mdm2 (Mus musculus) (P23804 whole entry): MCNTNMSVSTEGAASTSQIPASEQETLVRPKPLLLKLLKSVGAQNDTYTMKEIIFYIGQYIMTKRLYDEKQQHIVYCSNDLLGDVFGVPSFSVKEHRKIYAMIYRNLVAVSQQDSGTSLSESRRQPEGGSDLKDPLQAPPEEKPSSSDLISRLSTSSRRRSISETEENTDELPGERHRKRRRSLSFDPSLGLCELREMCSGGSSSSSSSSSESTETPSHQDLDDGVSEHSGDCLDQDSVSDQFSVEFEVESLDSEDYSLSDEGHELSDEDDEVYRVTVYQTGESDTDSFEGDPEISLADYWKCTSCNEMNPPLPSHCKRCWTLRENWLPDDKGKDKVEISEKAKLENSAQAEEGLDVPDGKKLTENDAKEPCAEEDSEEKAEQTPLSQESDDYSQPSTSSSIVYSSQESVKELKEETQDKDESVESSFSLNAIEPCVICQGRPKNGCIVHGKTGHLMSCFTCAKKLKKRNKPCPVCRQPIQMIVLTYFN
smiles,measurement,setting,value
Cc1noc([C@@H]2[C@@H](c3ccccc3)[C@H](C(F)(F)F)N[C@@]23C(=O)Nc2cc(Cl)ccc23)c1[N+](=O)[O-],viability at 1 µM,MCF7 [1],84%
same,Activity,MCF7 [2],7.81%
same,inhibition,[3],Active
same,viability at 0.1 µM,MCF7 [4],91.3%
same,viability at 0.5 µM,MCF7 [5],83.8%
same,Activity,[6],Non-Toxic
same,Activity,MCF7 [7],7.98%
same,viability at 1 µM,MCF7 [8],81.2%
same,Activity,MCF7 [9],2.85%
same,Activity,MCF7 [10],inactive
same,Activity,MCF7 [11],Active
same,IC50,MCF7 [12],0.12 µM
same,inhibition,[13],Active
same,Activity,[14],Active
same,Activity,MCF7 [15],1.39%
same,Ki,[16],0.24 µM
same,Activity,MCF7 [17],4.71%
same,Activity,Mus musculus,Active
same,Activity,MCF7 [18],4.51%
same,IC50,MCF7 [19],13.5 µM
same,Activity,MCF7 [20],inactive
same,Activity,MCF7 [21],3.35%
same,inhibition,[22],Active
same,TGI,MCF7 [23],Active
same,Activity,MCF-10A,Non-Toxic
same,Activity,MCF7 [24],4.91%
same,Activity,MCF7 [25],2.61%
same,Activity,MCF7 [26],Active
same,Activity,MCF7 [27],3.16%
same,inhibition,[28],Active
same,Activity,MCF7 [29],Active
same,Activity,MCF7 [30],5.25%
same,Activity,MCF7 [31],11.3%
same,Activity,MCF7 [32],Active
